For the first assay, the system named is LPS-induced IL-6 release level from THP-1 cells. The assay can be described thus: Test of IL-6 release from THP-1 cells (LPS-induced, IL-6 in supernatant detected by CBA). It is filed as cell-based. To be noted: Homo sapiens, THP-1, 24 h, read-out: Inhibition rate @ 10 uM. The procedure: Test of IL-6 Release from THP-1 Cells
The inhibitory effect of the compound on LPS-induced IL-6 release level from THP-1 cells was evaluated by measuring the level of IL-6 in the cell culture supernatant.
4 ul was taken from each above solution and added to lml of culture solution to make 120 uM, 40 uM, 12 uM, 4 uM. 50 ul per well was taken and added to wells with cells to give final concentrations of 30 uM, 10 uM, 3 uM, and 1 uM, respectively. Dexamethasone was added as a positive drug into an individual cell well with a final concentration of 100 nM. • c) Cell stimulation
The LPS 1 mg/ml solution was diluted to 800 ng/ml with the culture solution and added to the cell culture wells at 50 ul/well. • d) Cell incubation and detection
The cell culture plate was placed in a 37° C. incubator, and the supernatant was collected after culturing for 24 hours. The level of IL-6 in the supernatant was detected by CBA.
With `C=C1CCC2[C@]3(C)CO[C@@H](C4CCCC4)O[C@@H]3CC[C@@]2(C)[C@@H]1CCOc1cc(Cl)ccc1C(=O)O` (stereo partly drawn) [Compound 448, 4-chloro-2-(2-((3R,4aR,6aS,7R,10bR)-3-cyclopentyl-6a,10b-dimethyl-8-dihydromethylenedecahydro-1H-naphtho[2,1-d][1,3]dioxin-7-yl)ethoxy)benzoic acid], the inhibition (usually the share of the control response that was lost under treatment) at 10 µM is less than 30%. As to `C=C1CCC2[C@]3(C)CO[C@@H](C4CCCC4)O[C@@H]3CC[C@@]2(C)[C@@H]1CCN(CC(=O)O)CC(=O)O` (stereo partly drawn) [Compound 404, 2,2′-((2-((3R,4aR,6aS,7R,10bR)-3-cyclopentyl-6a,10b-dimethyl-8-methylene-decahydro-1H-naphtho[2,1-d][1,3]dioxin-7-yl)ethyl)azanediyl)diacetic acid], the inhibition at 10 µM is less than 30%.

Staying with this assay, now noted: Homo sapiens; inflammatory factor IL-6 detected by CBA; compound 10 uM; LPS-stimulated THP-1 cells, supernatant after 24 hours; read-out: Inhibition rate @ 10 uM.
`C=C1CCC2[C@]3(C)CO[C@@H](c4ccc(F)c(F)c4)O[C@@H]3CC[C@@]2(C)[C@@H]1CCN1C(=O)CNC1=O` (stereo partly drawn) [Compound 230, 3-(2-((3R,4aR,6aS,7R,10bR)-3-(3,4-difluorophenyl)-6a,10b-dimethyl-8-methylenedecahydro-1H-naphtho[2,1-d][1,3]dioxin-7-yl)ethyl)tetrahydroimidazole-2,4-dione]: the inhibition at 10 µM is more than 60%. Same read-out and setting: then `C=C1CCC2[C@]3(C)CO[C@@H](C4CCCC4)O[C@@H]3CC[C@@]2(C)[C@@H]1CCOC1CCN(CC(=O)O)CC1` (stereo partly drawn) [Compound 426, 2-(4-(2-((3R,4aR,6aS,7R,10bR)-3-cyclopentyl-6a,10b-dimethyl-8-dihydromethylenedecahydro-1H-naphtho[2,1-d][1,3]dioxin-7-yl)ethoxy)piperidine-1-yl)acetic acid], with 30 to 60%; and `C=C1CCC2[C@]3(C)CO[C@@H](C4CCCC4)O[C@@H]3CC[C@@]2(C)[C@@H]1CCOC1CCN(S(=O)(=O)C2CC2)CC1` (stereo partly drawn) [Compound 484, 4-(2-((3R,4aR,6aS,7R,10bR)-3-cyclopentyl-6a,10b-dimethyl-8-dihydromethylene-decahydro-1H-naphtho[2,1-d][1,3]dioxin-7-yl)ethoxyl)-1-(cyclopropylsulfonyl)piperidine], with more than 60%. Same read-out and setting: the result for `C=C1CCC2[C@]3(C)CO[C@@H](C4CCCC4)O[C@@H]3CC[C@@]2(C)[C@@H]1CCN1CC[C@H](NC(C)=O)C1` (stereo partly drawn) [Compound 149, N-((3 S)-1-(2-((3R,4aR,6aS,7R,10bR)-3-cyclopentyl-6a,10b-dimethyl-8-methylenedecahydro-1H-naphtho[2,1-d][1,3]dioxain-7-yl)ethyl)pyrrolidin-3-yl)acetamide] reads 30 to 60%; that for `C=C1CCC2[C@]3(C)CO[C@@H](C4CCCC4)O[C@@H]3CC[C@@]2(C)[C@@H]1CCN1CCC(C(=O)O)CC1` (stereo partly drawn) [Compound 256, 1-(2-((3R,4aR,6aS,7R,10bR)-3-cyclopentyl-6a,10b-dimethyl-8-methylene-decahydro-1H-naphtho[2,1-d][1,3]dioxin-7-yl)ethyl)piperidin-4-carboxylic acid], less than 30%. The same measure, in the same setting: then `C=C1CCC2[C@]3(C)CO[C@@H](C4CCCC4)O[C@@H]3CC[C@@]2(C)[C@@H]1CCN1CCC[C@H]1C(=O)OC` (some centres unmarked) [Compound 147], with less than 30%; and `C=C1CCC2[C@]3(C)CO[C@@H](C4CCCC4)O[C@@H]3CC[C@@]2(C)[C@@H]1CCOCCCN(C)C` (stereo partly drawn) [Compound 281, 3-(2-((3R,4aR,6aS,7R,10bR)-3-cyclopentyl-6a,10b-dimethyl-8-dihydromethylenedecahydro-1H-naphtho[2,1-d][1,3]dioxin-7-yl)ethoxy)-N,N-dimethylpropan-1-amine], with 30 to 60%. Consider `C=C1CCC2[C@]3(C)CO[C@@H](C4CCCC4)O[C@@H]3CC[C@@]2(C)[C@@H]1CCOc1cccnc1C(=O)O` (stereo partly drawn) [Compound 431, 3-(2-((3R,4aR,6aS,7R,10bR)-3-cyclopentyl-6a,10b-dimethyl-8-dihydromethylenedecahydro-1H-naphtho[2,1-d][1,3]dioxin-7-yl)ethoxy)-2-picolinic acid], for which the inhibition at 10 µM was more than 60%. Still for that read-out and setting: then `C=C1CCC2[C@]3(C)CO[C@@H](C4CCCC4)O[C@@H]3CC[C@@]2(C)[C@@H]1CCOc1cnn(C)c1` (stereo partly drawn) [Compound 289, 4-(2-((3R,4aR,6aS,7R,10bR)-3-cyclopentyl-6a,10b-dimethyl-8-dihydromethylenedecahydro-1H-naphtho[2,1-d][1,3]dioxin-7-yl)ethoxy)-2-methyl-1H-pyrazole], with more than 60%; and `C=C1CCC2[C@]3(C)CO[C@@H](C4CCCC4)O[C@@H]3CC[C@@]2(C)[C@@H]1CCOc1ccccc1C(=O)O` (stereo partly drawn) [Compound 407, 2-(2-((3R,4aR,6aS,7R,10bR)-3-cyclopentyl-6a,10b-dimethyl-8-dihydromethylenedecahydro-1H-naphtho[2,1-d][1,3]dioxin-7-yl)ethoxy)benzoic acid], with more than 60%. Turning to `C=C1CCC2[C@]3(C)CO[C@@H](C4CCCC4)O[C@@H]3CC[C@@]2(C)[C@@H]1CCN1CCN(C)CC1` (stereo partly drawn) [Compound 433, 1-(2-((3R,4aR,6aS,7R,10bR)-3-cyclopentyl-6a,10b-dimethyl-8-methylene-decahydro-1H-naphtho[2,1-d][1,3]dioxin-7-yl)ethyl)-4-methylpiperazine], the inhibition at 10 µM is more than 60%. In the case of `C=C1CCC2[C@]3(C)CO[C@@H](C4CCCC4)O[C@@H]3CC[C@@]2(C)[C@@H]1CCOc1cnc(C(=O)O)nc1` (stereo partly drawn) [Compound 454, 5-(2-((3R,4aR,6aS,7R,10bR)-3-cyclopentyl-6a,10b-dimethyl-8-dihydromethylenedecahydro-1H-naphtho[2,1-d][1,3]dioxin-7-yl)ethoxy)pyrimidine-2-carboxylic acid], the inhibition at 10 µM lay in the range of 30 to 60%. Same read-out and setting: then `C=C1CCC2[C@]3(C)CO[C@@H](C4CCCC4)O[C@@H]3CC[C@@]2(C)[C@@H]1CCOc1cscc1C(=O)O` (stereo partly drawn) [Compound 453, 4-(2-((3R,4aR,6aS,7R,10bR)-3-cyclopentyl-6a,10b-dimethyl-8-dihydromethylenedecahydro-1H-naphtho[2,1-d][1,3]dioxin-7-yl)ethoxy)thiophene-3-carboxylic acid], with more than 60%; and `C=C1CCC2[C@]3(C)CO[C@@H](C4CCCC4)O[C@@H]3CC[C@@]2(C)[C@@H]1CCOc1ccncc1N` (some centres unmarked) [Compound 339], with less than 30%; and `C=C1CCC2[C@]3(C)CO[C@@H](C4CCCC4)O[C@@H]3CC[C@@]2(C)[C@@H]1CCOc1ccnc(N)c1` (stereo partly drawn) [Compound 321, 4-(2-((3R,4aR,6aS,7R,10bR)-3-cyclopentyl-6a,10b-dimethyl-8-dihydromethylenedecahydro-1H-naphtho[2,1-d][1,3]dioxin-7-yl)ethoxy)-pyridin-2-amine], with less than 30%.

`C=C1CCC2[C@]3(C)CO[C@@H](C4CCCC4)O[C@@H]3CC[C@@]2(C)[C@@H]1CCN1CCOC[C@@H]1C(=O)O` (some centres unmarked) [Compound 456]: the inhibition at 10 µM was more than 60%. On the same count and under the same terms, the result for `C=C1CCC2[C@]3(C)CO[C@@H](C4CCCC4)O[C@@H]3CC[C@@]2(C)[C@@H]1CCOc1ccnc(OC)c1` (stereo partly drawn) [Compound 420, 4-(2-((3R,4aR,6aS,7R,10bR)-3-cyclopentyl-6a,10b-dimethyl-8-dihydromethylenedecahydro-1H-naphtho[2,1-d][1,3]dioxin-7-yl)ethoxy)-2-methoxypyridine] reads less than 30%. Same read-out and setting: then `C=C1CCC2[C@]3(C)CO[C@@H](C4CCCC4)O[C@@H]3CC[C@@]2(C)[C@@H]1CCOc1ccnc(C(=O)O)c1` (stereo partly drawn) [Compound 410, 4-(2-((3R,4aR,6aS,7R,10bR)-3-cyclopentyl-6a,10b-dimethyl-8-dihydromethylenedecahydro-1H-naphtho[2,1-d][1,3]dioxin-7-yl)ethoxy)picolinic acid], with 30 to 60%; and `C=C1CCC2[C@]3(C)CO[C@@H](C4CCCC4)O[C@@H]3CC[C@@]2(C)[C@@H]1CCN1CCC[C@H]1C(=O)O` (some centres unmarked) [Compound 435], with less than 30%; and `C=C1CCC2[C@]3(C)CO[C@@H](C4CCCC4)O[C@@H]3CC[C@@]2(C)[C@@H]1CCOc1cncc(OC)c1` (stereo partly drawn) [Compound 442, 3-(2-((3R,4aR,6aS,7R,10bR)-3-cyclopentyl-6a,10b-dimethyl-8-dihydromethylenedecahydro-1H-naphtho[2,1-d][1,3]dioxin-7-yl)ethoxy)-5-methoxypyridine], with 30 to 60%. `C=C1CCC2[C@]3(C)CO[C@@H](C4CCCC4)O[C@@H]3CC[C@@]2(C)[C@@H]1CCOc1ccncc1` (stereo partly drawn) [Compound 297, 4-(2-((3R,4aR,6aS,7R,10bR)-3-cyclopentyl-6a,10b-dimethyl-8-dihydromethylenedecahydro-1H-naphtho[2,1-d][1,3]dioxin-7-yl)ethoxy)pyridine]: the inhibition at 10 µM is more than 60%. On to `C=C1CCC2[C@]3(C)COC4(CCCC4)O[C@@H]3CC[C@@]2(C)[C@@H]1CCOc1ccncc1` (some centres unmarked) [Compound 416], for which the inhibition at 10 µM was more than 60%. Turning to `C=C1CCC2[C@]3(C)CO[C@@H](C4CCCC4)O[C@@H]3CC[C@@]2(C)[C@@H]1CCN(CCO)CCO` (stereo partly drawn) [Compound 191, 3-((2-((3R,4aR,6aS,7R,10bR)-3-cyclopentyl-6a,10b-dimethyl-8-methylene-decahydro-1H-naphtho[2,1-d][1,3]dioxin-7-yl)ethyl)amino)N,N-diethanolamine], the inhibition at 10 µM was less than 30%. Still for that read-out and setting: then `C=C1CCC2[C@](C)(CO)[C@H](O)CC[C@@]2(C)[C@@H]1CCOC1CCN(C)CC1` (stereo partly drawn) [Compound 386, (1R,2R,4aS,5R)-1-(hydroxymethyl)-1,4a-dimethyl-6-dihydromethylene-5-(2-((1-methylpiperidine-4-yl)oxy)ethyl) decahydronaphthalene-2-ol], with less than 30%.

For the origin of these results see patent publication US10717720B2, “Modified compound of andrographolide” (Heilongjiang Zhenbaodao Pharmaceutical Co., Ltd., priority 2015, dated 2020).
